Molecules are shown by their SMILES. pIC50: −log10 of the molar value. Like-named read-outs stand apart in the source and are kept apart here.

Test [1] concerns tumor patients with RET fusion and mutation. The settings on record: phase I, cited from earlier work.
Test [2] addresses wild-type RET kinase (Homo sapiens, UniProt P07949). Kind of test: Kinase activity assay against wild-type RET at ATP Km (33P-ATP, filter-binding). In kind it is biochemical. Particulars: ATP Km concentration, 10 concentrations. The procedure:
[…]. The biological activity screening of the compounds will be determined repeatedly at 10 concentrations.
Each sample was prepared into a solution with a concentration of 10 mM.
The test compound was dissolved in 100% dimethyl sulfoxide to a specific concentration. Integra Viaflo Assist was used to assist DMSO for (continuous) dilution.
Adding kinase into the newly prepared basic reaction buffer:
Adding any desired cofactors to the substrate solution;
Adding wild-type RET kinase into the substrate solution and gently mixing;
Using Acoustic technology (Echo 550; nanoliter range) to feed the compounds in 100% of dimethyl sulfoxide into the kinase reaction mixture and incubated at room temperature for 20 minutes.
Adding 33P-ATP (specific activity 10 Ci/1) into the reaction mixture to start the reaction.
Incubated at room temperature for 2 hours;
Radioactivity was detected by filter-binding method;
Kinase activity data was expressed as the percentage of remaining kinase activity in the test sample compared to the vehicle (dimethyl sulfoxide) reaction. Prism (GRAPHPAD software) was used to obtain IC50 value and curve-fitting.

wild-type RET kinase, sequence (P07949 29-1114): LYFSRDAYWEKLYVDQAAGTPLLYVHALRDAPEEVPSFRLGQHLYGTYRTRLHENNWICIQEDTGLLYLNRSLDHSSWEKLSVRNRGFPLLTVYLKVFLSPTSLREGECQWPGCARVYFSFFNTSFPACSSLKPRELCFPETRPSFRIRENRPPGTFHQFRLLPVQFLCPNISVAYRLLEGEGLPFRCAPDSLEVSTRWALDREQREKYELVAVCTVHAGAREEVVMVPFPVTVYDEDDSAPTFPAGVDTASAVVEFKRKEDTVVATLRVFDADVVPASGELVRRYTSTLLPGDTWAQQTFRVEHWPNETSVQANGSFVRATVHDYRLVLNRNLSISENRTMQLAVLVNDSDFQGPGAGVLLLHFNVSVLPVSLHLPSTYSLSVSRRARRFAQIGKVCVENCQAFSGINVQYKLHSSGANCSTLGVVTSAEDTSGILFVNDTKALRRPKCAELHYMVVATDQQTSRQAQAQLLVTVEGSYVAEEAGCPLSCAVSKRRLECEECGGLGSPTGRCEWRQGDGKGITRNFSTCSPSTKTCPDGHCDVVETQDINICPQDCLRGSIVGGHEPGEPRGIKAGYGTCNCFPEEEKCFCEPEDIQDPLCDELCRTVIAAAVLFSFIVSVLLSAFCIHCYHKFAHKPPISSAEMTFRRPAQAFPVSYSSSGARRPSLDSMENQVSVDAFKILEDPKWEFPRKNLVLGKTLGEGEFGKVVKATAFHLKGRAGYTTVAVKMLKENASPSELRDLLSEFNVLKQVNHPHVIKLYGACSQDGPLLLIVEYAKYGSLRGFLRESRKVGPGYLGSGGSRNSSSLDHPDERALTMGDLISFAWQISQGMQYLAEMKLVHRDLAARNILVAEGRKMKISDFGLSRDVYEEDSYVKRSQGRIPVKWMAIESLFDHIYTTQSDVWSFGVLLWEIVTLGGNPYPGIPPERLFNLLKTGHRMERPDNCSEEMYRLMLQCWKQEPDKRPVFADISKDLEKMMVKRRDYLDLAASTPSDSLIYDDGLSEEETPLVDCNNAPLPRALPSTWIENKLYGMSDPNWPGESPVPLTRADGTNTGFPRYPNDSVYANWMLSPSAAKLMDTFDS

In the case of `CO[C@]1(C(=O)N[C@@H](C)c2ccc(-n3cc(F)cn3)nc2)CC[C@H](c2nc(C)cc(Nc3cc(C)[nH]n3)n2)CC1` [BLU-667], the results for the ORR in test [1] (patients with medullary thyroid carcinoma) and in test [1] (patients with non-small cell lung cancer) were 40% and 50%, respectively. In addition, in test [1] (tumor patients with RET fusion and mutation), the “overall remission rate (ORR)” value is recorded as 45%.
Regarding `COc1ccc(CN2C3CC2CN(c2ccc(-c4cc(OCC(C)(C)O)cc5nccc(C#N)c45)cn2)C3)cn1` [Compound C3], the pIC50 (in general, the negative decadic logarithm of the IC50, by convention in mol/L) in test [2] was 6.65.
On the same count and under the same terms, the value for `COc1ccc(CN2CCC(n3ccc(-c4cc(-c5cnn(C)c5)cn5ncc(C#N)c45)cc3=O)CC2)cn1` [Compound C8] was 7.24.
`COc1ccc(CN2CCCC(n3ccc(-c4cc(-c5cnn(C)c5)cn5ncc(C#N)c45)cc3=O)C2)cn1` (stereo not drawn) [Compound C7] showed a pIC50 in test [2] of 7.56.
In test [2], `COc1ccc(CN2CCC(n3cc(-c4cc(-c5cnn(C)c5)cn5ncc(C#N)c45)cn3)C2)cn1` (stereo not drawn) [Compound C1] showed a negative logarithm of the IC50 (pIC50) of 8.81.
Same read-out and setting: the value for `COc1ccc(CN2CCC(n3ccc(-c4cc(-c5cnn(C)c5)cn5ncc(C#N)c45)cc3=O)C2)cn1` (stereo not drawn) [Compound C5] was 7.39.
`COc1ccc(CN2CCCC(n3cc(-c4cc(-c5cnn(C)c5)cn5ncc(C#N)c45)cn3)C2)cn1` (stereo not drawn) [Compound C2] had a negative-log IC50 (pIC50) in test [2] of 8.45.

Source of the values: patent US20230095530A1, “COMPOUND USED AS RET KINASE INHIBITOR AND APPLICATION THEREOF” (TYK Medicines, Inc., priority 2019, published 2023).
